From patent US10208027B2, “Processes for preparing ATR inhibitors” (Vertex Pharmaceuticals Incorporated, priority 2011, dated 2019) come the findings set out here.

For experiment [1], the target named is full-length ATR (Homo sapiens (Human), UniProt Q13535). Kind of experiment: ATR inhibition assay (radioactive-phosphate incorporation). Type of experiment: biochemical.
Experimental: Compounds can be screened for their ability to inhibit ATR kinase using a radioactive-phosphate incorporation assay. Assays are carried out in a mixture of 50 mM Tris/HCl (pH 7.5), 10 mM MgCl2 and 1 mM DTT. Final substrate concentrations are 10 μM [γ-33P]ATP (3 mCi 33P ATP/mmol ATP, Perkin Elmer) and 800 μM target peptide ([sequence]).
Assays are carried out at 25° C. in the presence of 5 nM full-length ATR. An assay stock buffer solution is prepared containing all of the reagents listed above, with the exception of ATP and the test compound of interest. […] The plate is pre-incubated for 10 minutes at 25° C. and the reaction initiated by addition of 15 μL [γ-33P]ATP (final concentration 10 μM).
The reaction is stopped after 24 hours by the addition of 30 μL 0.1M phosphoric acid containing 2 mM ATP. A multiscreen phosphocellulose filter 96-well plate (Millipore, Cat no. MAPHNOB50) is pretreated with 100 μL 0.2M phosphoric acid prior to the addition of 45 μL of the stopped assay mixture. […]
After removing mean background values for all of the data points, Ki(app) data are calculated from non-linear regression analysis of the initial rate data using the Prism software package (GraphPad Prism version 3.0cx for Macintosh, GraphPad Software, San Diego Calif., USA).
Experiment [2] deals with HCT116 colorectal cancer cells. Kind of experiment: Single agent HCT116 activity, 96 h cell viability (MTS) assay. Type of experiment: cell-based. Particulars: Homo sapiens, HCT-116, 96 h MTS viability, read-out: Single agent HT116 IC50. Here is the method:
Compounds can be screened for single agent activity against HCT116 colorectal cancer cells using a 96 h cell viability (MTS) assay. HCT116 are plated at 470 cells per well in 96-well polystyrene plates (Costar 3596) in 150 μl of McCoy's 5A media (Sigma M8403) supplemented with 10% foetal bovine serum (JRH Biosciences 12003), Penicillin/Streptomycin solution diluted 1:100 (Sigma P7539), and 2 mM L-glumtamine (Sigma G7513), and allowed to adhere overnight at 37° C. in 5% CO2. Compounds are then added to the cell media in 2-fold serial dilutions from a top final concentration of 10 μM as a full matrix of concentrations in a final cell volume of 200 μl, and the cells are then incubated at 37° C. in 5% CO2. After 96 h, 40 μl of MTS reagent (Promega G358a) is added to each well and the cells are incubated for 1 h at 37° C. in 5% CO2. Finally, absorbance is measured at 490 nm using a SpectraMax Plus 384 reader (Molecular Devices) and IC50 values can be calculated.

Experiment [3] relates to HCT116 colorectal cancer cells. Kind of experiment: Cisplatin sensitization assay, 96 h cell viability (MTS). It is filed as cell-based. The conditions noted are these: concentration of compound required to reduce the IC50 of Cisplatin alone by at least 3-fold; HCT116, 96 h MTS. The procedure:
Compounds can be screened for their ability to sensitize HCT116 colorectal cancer cells to Cisplatin using a 96 h cell viability (MTS) assay. […] Compounds and Cisplatin are then both added simultaneously to the cell media in 2-fold serial dilutions from a top final concentration of 10 μM as a full matrix of concentrations in a final cell volume of 200 μl, and the cells are then incubated at 37° C. in 5% CO2. After 96 h, 40 μl of MTS reagent (Promega G358a) is added to each well and the cells are incubated for 1 h at 37° C. in 5% CO2.

Where only a bound is given, the exact number is not on record here.

Chain of full-length ATR (Q13535 whole entry): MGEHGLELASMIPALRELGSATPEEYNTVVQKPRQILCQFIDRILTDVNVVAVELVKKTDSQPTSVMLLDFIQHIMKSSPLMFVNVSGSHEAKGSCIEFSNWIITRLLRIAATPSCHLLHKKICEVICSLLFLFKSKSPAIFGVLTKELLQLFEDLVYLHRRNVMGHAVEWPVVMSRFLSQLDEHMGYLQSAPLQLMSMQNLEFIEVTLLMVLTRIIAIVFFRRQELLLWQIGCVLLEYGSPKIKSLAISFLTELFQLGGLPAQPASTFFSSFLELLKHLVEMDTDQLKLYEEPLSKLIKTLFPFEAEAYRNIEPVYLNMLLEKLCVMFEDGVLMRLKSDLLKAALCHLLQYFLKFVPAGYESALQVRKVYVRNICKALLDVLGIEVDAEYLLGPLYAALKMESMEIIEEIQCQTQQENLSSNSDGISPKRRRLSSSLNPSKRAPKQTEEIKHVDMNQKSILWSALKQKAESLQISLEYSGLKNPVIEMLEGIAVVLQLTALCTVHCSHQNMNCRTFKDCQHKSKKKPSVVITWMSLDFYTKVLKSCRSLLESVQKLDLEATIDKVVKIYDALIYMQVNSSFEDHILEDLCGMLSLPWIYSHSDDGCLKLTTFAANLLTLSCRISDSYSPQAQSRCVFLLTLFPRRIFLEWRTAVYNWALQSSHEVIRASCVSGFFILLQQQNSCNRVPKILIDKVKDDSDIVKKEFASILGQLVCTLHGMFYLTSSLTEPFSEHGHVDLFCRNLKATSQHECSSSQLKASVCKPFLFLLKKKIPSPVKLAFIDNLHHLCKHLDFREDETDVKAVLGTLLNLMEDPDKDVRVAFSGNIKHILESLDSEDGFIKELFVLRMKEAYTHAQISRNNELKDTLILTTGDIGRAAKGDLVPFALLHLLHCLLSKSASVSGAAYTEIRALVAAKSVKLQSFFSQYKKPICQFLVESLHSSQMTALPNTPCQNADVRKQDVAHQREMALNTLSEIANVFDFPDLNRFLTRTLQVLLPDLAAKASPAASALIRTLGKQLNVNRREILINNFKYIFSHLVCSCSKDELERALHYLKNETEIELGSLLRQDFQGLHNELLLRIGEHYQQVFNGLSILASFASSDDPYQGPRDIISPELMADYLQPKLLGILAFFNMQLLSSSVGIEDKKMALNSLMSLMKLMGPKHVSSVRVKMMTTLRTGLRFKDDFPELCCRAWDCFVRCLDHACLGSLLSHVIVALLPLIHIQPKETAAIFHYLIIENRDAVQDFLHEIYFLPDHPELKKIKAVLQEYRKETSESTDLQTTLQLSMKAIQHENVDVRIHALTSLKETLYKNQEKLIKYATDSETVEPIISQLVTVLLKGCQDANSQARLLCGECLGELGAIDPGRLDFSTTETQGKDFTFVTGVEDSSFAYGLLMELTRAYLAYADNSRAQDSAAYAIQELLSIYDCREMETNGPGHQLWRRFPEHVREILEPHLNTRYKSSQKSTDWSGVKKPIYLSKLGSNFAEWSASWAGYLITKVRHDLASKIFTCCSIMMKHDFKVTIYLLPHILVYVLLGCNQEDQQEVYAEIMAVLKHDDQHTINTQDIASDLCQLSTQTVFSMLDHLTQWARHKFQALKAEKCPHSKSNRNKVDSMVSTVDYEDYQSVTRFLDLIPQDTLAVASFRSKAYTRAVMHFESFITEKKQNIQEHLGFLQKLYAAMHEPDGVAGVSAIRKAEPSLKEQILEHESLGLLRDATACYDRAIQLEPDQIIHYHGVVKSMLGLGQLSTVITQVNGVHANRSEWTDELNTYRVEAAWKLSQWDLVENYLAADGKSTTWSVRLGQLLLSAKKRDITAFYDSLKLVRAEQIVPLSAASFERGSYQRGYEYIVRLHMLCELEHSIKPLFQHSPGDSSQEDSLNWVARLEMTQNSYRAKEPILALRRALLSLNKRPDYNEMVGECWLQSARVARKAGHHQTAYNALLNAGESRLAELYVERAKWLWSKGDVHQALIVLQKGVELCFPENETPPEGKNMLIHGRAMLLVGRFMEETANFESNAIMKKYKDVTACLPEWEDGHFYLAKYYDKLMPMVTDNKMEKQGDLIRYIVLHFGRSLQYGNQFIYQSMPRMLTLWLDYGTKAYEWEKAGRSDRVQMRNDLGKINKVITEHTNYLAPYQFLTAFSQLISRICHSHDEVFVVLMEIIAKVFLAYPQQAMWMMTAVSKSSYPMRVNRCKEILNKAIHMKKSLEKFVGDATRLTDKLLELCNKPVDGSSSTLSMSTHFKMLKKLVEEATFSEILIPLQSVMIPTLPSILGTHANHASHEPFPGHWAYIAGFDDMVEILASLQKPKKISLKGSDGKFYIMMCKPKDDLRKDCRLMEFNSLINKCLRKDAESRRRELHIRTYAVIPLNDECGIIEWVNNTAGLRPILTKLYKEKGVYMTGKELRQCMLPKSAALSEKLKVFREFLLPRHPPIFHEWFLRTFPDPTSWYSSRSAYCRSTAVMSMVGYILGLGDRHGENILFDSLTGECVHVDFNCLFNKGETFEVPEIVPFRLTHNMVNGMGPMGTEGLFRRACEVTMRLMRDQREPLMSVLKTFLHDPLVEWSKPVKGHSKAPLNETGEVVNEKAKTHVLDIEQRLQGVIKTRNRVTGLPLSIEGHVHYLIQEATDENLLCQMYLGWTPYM

On to “5-(4-(tert-butylsulfonyl)phenyl)-3-(3-(4-((methylamino)methyl)phenyl)isoxazol-5-yl)pyrazin-2-amine [Compound I-2]”, for which the Ki (as a rule, a measure of affinity in units of concentration, obtained from inhibition or displacement) in experiment [1] was less than 1 nM.

Consider `CC(C)(C#N)c1cc(-c2cnc(N)c(-c3cc(-c4ccc(CNC5CCOCC5)cc4)no3)n2)ccn1` [Compound I-1, 2-(4-(5-amino-6-(3-(4-((tetrahydro-2H-pyran-4-ylamino)methyl)phenyl)isoxazol-5-yl)pyrazin-2-yl)pyridin-2-yl)-2-methylpropanenitrile], for which the Ki in experiment [1] was less than 1 nM.

In the case of `[2H]C([2H])(NC)c1ccc(-c2cc(-c3nc(-c4ccc(S(=O)(=O)C(C)C)cc4)cnc3N)on2)cc1` [II-1, 3-[3-[4-[dideuterio(methylamino)methyl]phenyl]isoxazol-5-yl]-5-(4-isopropylsulfonylphenyl)pyrazin-2-amine], the half-maximal inhibitory concentration (IC50) (as a rule, the concentration needed to halve the response being measured) in experiment [2] was determined as 62 nM. Further, the “Cisplatin sensitization” value in experiment [3] came out at 39 nM.

`[2H]C([2H])([2H])NC([2H])([2H])c1ccc(-c2cc(-c3nc(-c4ccc(S(=O)(=O)C(C)C)cc4)cnc3N)on2)cc1` [II-2, 3-[3-[4-[dideuterio-(trideuteriomethylamino)methyl]phenyl]isoxazol-5-yl]-5-(4-isopropylsulfonylphenyl)pyrazin-2-amine]: the IC50 in experiment [2] is 46 nM. Moreover, in experiment [3], the “Cisplatin sensitization” value is listed as 29 nM.

On to `[2H]C([2H])([2H])NCc1ccc(-c2cc(-c3nc(-c4ccc(S(=O)(=O)C(C)C)cc4)cnc3N)on2)cc1` [II-3, 5-(4-isopropylsulfonylphenyl)-3-[3-[4-[(trideuteriomethylamino)methyl]phenyl]isoxazol-5-yl]pyrazin-2-amine], for which the 50% inhibitory concentration (IC50) in experiment [2] is 66 nM. The “Cisplatin sensitization” value in experiment [3] worked out at 39 nM.
